According to ChEMBL document CHEMBL3124792, “Discovery and preclinical characterization of the cyclopropylindolobenzazepine BMS-791325, a potent allosteric inhibitor of the hepatitis C virus NS5B polymerase” (J Med Chem, 2014):
≈ marks a conversion by molar mass, not a printed value.

Experiments:
Cytochrome P450 2C9 = Cytochrome P450 2C9 (Homo sapiens, UniProt P11712); test: Inhibition of CYP2C9 in human liver microsomes after 30 mins in presence of NADPH; type: ADME
[1] = biological target: Sodium channel protein type 5 subunit alpha (Homo sapiens, UniProt Q14524); test: Inhibition of human NaV1.5 expressed in HEK293 cells by fluorescence-based thallium flux assay; type: cell-based
[2] = biological target: Voltage-gated inwardly rectifying potassium channel KCNH2 (Homo sapiens, UniProt Q12809); test: Inhibition of human ERG by fluorescence-based thallium flux assay
Hepatitis C virus [3] = test: Antiviral activity against Hepatitis C virus H77c genotype 1a infected in human HuH7 cells after 3 days by FRET assay; type: functional, organism-based, Hepacivirus hominis; settings: genotype 1a H77, Huh-7, 72 h
[4] = biological target: T1, Nuclear receptor subfamily 1 group I member 2 (Homo sapiens, UniProt O75469); test: Transactivation of human PXR expressed in human HepG2 cells by luciferase reporter gene assay; type: cell-based
T1 sequence (O75469 whole entry): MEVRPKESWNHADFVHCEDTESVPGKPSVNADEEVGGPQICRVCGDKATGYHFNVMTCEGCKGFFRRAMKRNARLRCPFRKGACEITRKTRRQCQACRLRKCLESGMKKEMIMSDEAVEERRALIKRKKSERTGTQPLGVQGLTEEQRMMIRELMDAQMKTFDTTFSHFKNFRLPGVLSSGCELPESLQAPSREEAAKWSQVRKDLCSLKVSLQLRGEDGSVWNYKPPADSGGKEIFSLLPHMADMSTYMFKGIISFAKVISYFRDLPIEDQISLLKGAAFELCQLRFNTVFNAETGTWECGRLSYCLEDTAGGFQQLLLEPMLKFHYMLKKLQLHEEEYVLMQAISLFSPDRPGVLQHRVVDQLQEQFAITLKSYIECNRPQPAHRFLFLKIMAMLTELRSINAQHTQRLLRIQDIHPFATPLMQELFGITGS

[5] = Permeability of the compound at pH 7.4 by PAMPA; type: physicochemical; settings: read-out: permeability
[6] = Solubility of the compound in amorphous form in phosphate buffer at pH 6.5; type: physicochemical
Cytochrome P450 3A4 = Cytochrome P450 3A4 (Homo sapiens, UniProt P08684); test: Inhibition of CYP3A4 in human liver microsomes using benzyloxyresorufin as substrate after 30 mins in presence of NADPH; type: ADME
Hepatitis C virus [7] = test: Antiviral activity against Hepatitis C virus Con1 genotype 1b infected in human HuH7 cells after 3 days by FRET assay; type: functional, organism-based, Hepacivirus hominis; settings: isolate Con1, Huh-7, 72 h
Cytochrome P450 1A2 = biological target: T2, Cytochrome P450 1A2 (Homo sapiens, UniProt P05177); test: Inhibition of CYP1A2 in human liver microsomes after 30 mins in presence of NADPH; type: ADME
T2 sequence (P05177 whole entry): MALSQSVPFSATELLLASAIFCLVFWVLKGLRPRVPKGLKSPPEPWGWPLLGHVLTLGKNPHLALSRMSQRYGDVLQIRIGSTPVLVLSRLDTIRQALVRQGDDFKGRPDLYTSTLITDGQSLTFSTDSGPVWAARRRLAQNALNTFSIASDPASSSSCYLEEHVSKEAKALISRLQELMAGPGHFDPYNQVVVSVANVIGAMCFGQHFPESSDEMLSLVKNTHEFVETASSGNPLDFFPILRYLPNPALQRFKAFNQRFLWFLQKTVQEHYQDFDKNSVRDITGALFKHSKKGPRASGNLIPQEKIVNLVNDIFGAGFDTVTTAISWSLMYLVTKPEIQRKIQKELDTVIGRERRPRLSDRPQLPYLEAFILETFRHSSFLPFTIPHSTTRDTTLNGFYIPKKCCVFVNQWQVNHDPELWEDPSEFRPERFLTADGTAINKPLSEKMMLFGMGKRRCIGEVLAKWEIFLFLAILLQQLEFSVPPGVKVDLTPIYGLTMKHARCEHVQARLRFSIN

Cytochrome P450 2C19 = Cytochrome P450 2C19 (Homo sapiens, UniProt P33261); test: Inhibition of CYP2C19 in human liver microsomes after 30 mins in presence of NADPH; type: ADME
Cytochrome P450 2D6 = Cytochrome P450 2D6 (Homo sapiens, UniProt P10635); test: Inhibition of CYP2D6 in human liver microsomes after 30 mins in presence of NADPH; type: ADME
HepG2 = test: Cytotoxicity against human HepG2 cells; type: cell-based
[8] = Drug uptake in rat liver at 10 mg/kg, po after 4 hrs; type: ADME, organism-based; design: dose 10 mg/kg, route oral; settings: read-out: Drug uptake
[9] = Plasma concentration in rat at 5 mg/kg, iv after 4 hrs; type: ADME, organism-based; design: dose 5 mg/kg, route intravenous
[10] = Plasma concentration in rat at 10 mg/kg, po after 4 hrs; type: ADME, organism-based; design: dose 10 mg/kg, route oral
[11] = Cytotoxicity against human HuH7 cells by Alamar blue assay; type: cell-based; settings: Huh-7 cells
[12] = AUC (0 to 4 hrs) in rat at 5 mg/kg, iv; type: ADME, organism-based; design: time < 4 hr, dose 5 mg/kg, route intravenous; settings: plasma
[13] = AUC (0 to 4 hrs) in rat at 10 mg/kg, po; type: ADME, organism-based; design: time < 4 hr, dose 10 mg/kg, route oral; settings: plasma
[14] = Plasma clearance in rat at 5 mg/kg, iv; type: ADME, organism-based; design: dose 5 mg/kg, route intravenous
Liver microsome [15] = settings: human, microsomes
Hepatitis C virus [16] = test: Antiviral activity against Hepatitis C virus Con1 genotype 1b infected in human HuH7 cells after 3 days by FRET assay in presence of 40% human serum; type: functional, organism-based, Hepacivirus hominis; settings: isolate Con1, Huh-7, 72 h
[17] = Drug uptake in rat liver at 5 mg/kg, iv after 4 hrs; type: ADME, organism-based; design: dose 5 mg/kg, route intravenous; settings: read-out: Drug uptake
Liver microsome [18] = settings: rat, microsomes

Chain of Cytochrome P450 2D6 (P10635 whole entry): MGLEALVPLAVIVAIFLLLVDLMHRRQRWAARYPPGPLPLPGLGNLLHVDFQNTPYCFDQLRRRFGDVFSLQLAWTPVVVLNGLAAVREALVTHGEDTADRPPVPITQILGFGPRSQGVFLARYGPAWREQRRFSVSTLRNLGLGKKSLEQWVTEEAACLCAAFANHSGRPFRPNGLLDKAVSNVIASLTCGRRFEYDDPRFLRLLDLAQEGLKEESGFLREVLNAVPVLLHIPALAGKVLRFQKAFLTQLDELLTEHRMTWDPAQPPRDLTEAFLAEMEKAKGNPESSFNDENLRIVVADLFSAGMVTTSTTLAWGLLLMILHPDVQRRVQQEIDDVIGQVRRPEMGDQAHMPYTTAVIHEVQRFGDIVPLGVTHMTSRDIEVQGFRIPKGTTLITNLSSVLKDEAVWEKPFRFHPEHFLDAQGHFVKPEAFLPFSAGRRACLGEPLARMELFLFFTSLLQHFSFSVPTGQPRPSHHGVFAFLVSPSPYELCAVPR
Chain of Cytochrome P450 2C9 (P11712 whole entry): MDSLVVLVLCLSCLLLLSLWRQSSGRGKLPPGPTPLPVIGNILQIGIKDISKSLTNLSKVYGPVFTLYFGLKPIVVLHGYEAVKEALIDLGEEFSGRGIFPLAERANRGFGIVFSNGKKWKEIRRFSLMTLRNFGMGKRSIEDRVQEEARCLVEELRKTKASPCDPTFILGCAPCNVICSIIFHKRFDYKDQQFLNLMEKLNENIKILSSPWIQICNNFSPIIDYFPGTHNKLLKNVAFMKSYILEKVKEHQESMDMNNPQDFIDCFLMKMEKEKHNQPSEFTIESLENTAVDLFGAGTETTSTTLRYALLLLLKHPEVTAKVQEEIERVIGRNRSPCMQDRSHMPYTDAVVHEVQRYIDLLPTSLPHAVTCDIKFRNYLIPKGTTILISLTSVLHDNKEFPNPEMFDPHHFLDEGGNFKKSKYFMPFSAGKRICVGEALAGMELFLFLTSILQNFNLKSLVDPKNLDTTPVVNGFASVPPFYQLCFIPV
Chain of Cytochrome P450 3A4 (P08684 whole entry): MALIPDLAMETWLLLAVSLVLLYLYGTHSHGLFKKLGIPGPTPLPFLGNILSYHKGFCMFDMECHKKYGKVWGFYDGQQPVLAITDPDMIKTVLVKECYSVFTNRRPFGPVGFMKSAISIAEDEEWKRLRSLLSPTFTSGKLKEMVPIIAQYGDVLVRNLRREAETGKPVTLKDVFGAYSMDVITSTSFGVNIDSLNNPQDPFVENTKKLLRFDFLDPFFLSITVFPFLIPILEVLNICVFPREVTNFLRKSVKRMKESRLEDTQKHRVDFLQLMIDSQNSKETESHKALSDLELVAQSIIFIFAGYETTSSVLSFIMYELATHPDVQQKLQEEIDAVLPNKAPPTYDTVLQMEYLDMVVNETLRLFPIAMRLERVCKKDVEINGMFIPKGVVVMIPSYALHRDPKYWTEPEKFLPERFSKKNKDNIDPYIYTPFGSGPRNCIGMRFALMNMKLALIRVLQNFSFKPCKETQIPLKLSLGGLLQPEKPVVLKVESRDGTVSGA
Chain of Cytochrome P450 2C19 (P33261 whole entry): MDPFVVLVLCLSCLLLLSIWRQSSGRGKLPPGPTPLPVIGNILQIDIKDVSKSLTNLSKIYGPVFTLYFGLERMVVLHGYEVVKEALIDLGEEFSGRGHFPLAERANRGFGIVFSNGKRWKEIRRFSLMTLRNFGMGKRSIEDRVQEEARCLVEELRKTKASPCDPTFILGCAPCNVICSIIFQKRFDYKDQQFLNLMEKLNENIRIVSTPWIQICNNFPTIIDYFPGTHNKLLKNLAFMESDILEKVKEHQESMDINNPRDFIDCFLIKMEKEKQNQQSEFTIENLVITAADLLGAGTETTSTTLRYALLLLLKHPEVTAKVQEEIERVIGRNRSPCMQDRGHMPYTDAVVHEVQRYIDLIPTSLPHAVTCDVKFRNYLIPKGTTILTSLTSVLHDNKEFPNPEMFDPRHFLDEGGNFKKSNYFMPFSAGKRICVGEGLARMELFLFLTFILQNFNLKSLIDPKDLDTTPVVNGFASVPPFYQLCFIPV
Chain of Voltage-gated inwardly rectifying potassium channel KCNH2 (Q12809 whole entry): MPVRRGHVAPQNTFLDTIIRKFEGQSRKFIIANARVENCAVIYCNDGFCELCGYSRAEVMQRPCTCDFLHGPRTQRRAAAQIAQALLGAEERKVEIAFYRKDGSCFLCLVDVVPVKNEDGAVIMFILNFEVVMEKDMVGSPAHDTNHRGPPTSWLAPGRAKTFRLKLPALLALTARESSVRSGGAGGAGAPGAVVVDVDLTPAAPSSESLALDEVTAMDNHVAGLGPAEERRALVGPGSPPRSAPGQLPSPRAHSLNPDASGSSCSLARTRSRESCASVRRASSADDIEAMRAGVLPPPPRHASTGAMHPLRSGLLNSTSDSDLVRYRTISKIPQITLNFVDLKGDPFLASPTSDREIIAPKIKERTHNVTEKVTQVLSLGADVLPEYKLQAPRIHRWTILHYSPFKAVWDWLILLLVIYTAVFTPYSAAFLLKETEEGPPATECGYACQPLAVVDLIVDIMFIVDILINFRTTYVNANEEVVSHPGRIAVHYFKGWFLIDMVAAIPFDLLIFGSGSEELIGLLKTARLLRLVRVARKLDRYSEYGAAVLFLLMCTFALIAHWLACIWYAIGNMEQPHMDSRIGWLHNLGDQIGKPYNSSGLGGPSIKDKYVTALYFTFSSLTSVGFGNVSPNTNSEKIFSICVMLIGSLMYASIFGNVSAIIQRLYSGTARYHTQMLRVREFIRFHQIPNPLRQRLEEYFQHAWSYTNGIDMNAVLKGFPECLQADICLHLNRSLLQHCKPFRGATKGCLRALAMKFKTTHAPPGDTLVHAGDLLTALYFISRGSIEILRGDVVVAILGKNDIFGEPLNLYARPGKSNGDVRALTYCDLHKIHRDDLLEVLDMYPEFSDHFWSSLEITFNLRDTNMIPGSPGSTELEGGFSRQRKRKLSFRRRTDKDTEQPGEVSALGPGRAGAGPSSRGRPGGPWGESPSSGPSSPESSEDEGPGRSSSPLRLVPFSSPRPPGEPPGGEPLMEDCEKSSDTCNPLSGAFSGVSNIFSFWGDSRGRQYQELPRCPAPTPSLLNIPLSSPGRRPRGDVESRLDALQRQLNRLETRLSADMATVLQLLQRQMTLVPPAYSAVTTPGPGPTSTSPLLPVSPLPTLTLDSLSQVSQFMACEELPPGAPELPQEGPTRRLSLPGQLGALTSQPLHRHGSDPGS

EC50 (Hepatitis C virus [3]) | EC50 [4] | Papp [5] | solubility [6] | EC50 (Hepatitis C virus [7]) | concentration at 4 h [8] | concentration at 4 h [9] | concentration at 4 h [10] | AUC(0-t) at 4 h [12] | Stability (Liver microsome [15]) | EC50 (Hepatitis C virus [16]) | Stability (Liver microsome [18]) | Structure (SMILES) | EC50 (Cytochrome P450 2C9) | EC50 [2] | EC50 (Cytochrome P450 3A4) | EC50 (Cytochrome P450 1A2) | EC50 (Cytochrome P450 2C19) | EC50 (Cytochrome P450 2D6) | EC50 (HepG2) | CC50 [11] | further results
0.004 µM | > 50 µM | 27 ×10⁻⁶ cm/s | 450 µg/mL (≈ 682 µM) | 0.004 µM |  |  |  |  |  |  |  | CCN1CC2CC(C1)N2C(=O)[C@]12C[C@H]1c1cc(OC)ccc1-c1c(C3CCCCC3)c3ccc(C(=O)NS(=O)(=O)N(C)C)cc3n1C2 | > 40 µM | 6 µM | 9 µM | > 40 µM | > 40 µM | > 40 µM | 19 µM |  | EC50 [1]: 29 µM
0.014 µM | > 50 µM | 48 ×10⁻⁶ cm/s | 34 µg/mL (≈ 51.4 µM) | 0.017 µM | 9700 nM | 67 nM | 158 nM | 4.29 µM·h | 88% | 0.046 µM | 99% | COc1ccc2c(c1)C1CC1(C(=O)N1C[C@@H](C)N(C)[C@@H](C)C1)Cn1c-2c(C2CCCCC2)c2ccc(C(=O)NS(=O)(=O)N(C)C)cc21 (mixture of isomers) |  |  |  |  |  |  |  | 8 µM | AUC(0-t) at 4 h [13]: 0.516 µM·h; clearance [14]: 29 mL/min/kg; concentration at 4 h [17]: 1860 nM
0.024 µM | > 50 µM | 48 ×10⁻⁶ cm/s | 17 µg/mL (≈ 24.6 µM) | 0.038 µM | 345 nM | 9 nM | 14 nM | 3.84 µM·h | 100% | 0.035 µM | 93% | COc1ccc2c(c1)C1CC1(C(=O)N1C[C@@H](C)N(C(C)=O)[C@@H](C)C1)Cn1c-2c(C2CCCCC2)c2ccc(C(=O)NS(=O)(=O)N(C)C)cc21 (mixture of isomers) |  |  |  |  |  |  |  | > 10 µM | AUC(0-t) at 4 h [13]: 0.277 µM·h; clearance [14]: 37 mL/min/kg; concentration at 4 h [17]: 126 nM

Structure (SMILES) | EC50 (Hepatitis C virus [3]) | EC50 [4] | Papp [5] | solubility [6] | EC50 (Hepatitis C virus [7]) | concentration at 4 h [8] | concentration at 4 h [9] | concentration at 4 h [10] | AUC(0-t) at 4 h [12] | Stability (Liver microsome [15]) | EC50 (Hepatitis C virus [16]) | Stability (Liver microsome [18]) | EC50 (Cytochrome P450 2C9) | EC50 [2] | EC50 (Cytochrome P450 3A4) | EC50 (Cytochrome P450 1A2) | EC50 (Cytochrome P450 2C19) | EC50 (Cytochrome P450 2D6) | EC50 (HepG2) | CC50 [11] | further results
COc1ccc2c(c1)C1CC1(C(=O)N1C3CNCC1C3)Cn1c-2c(C2CCCCC2)c2ccc(C(=O)NS(=O)(=O)N(C)C)cc21 (racemic) | 0.023 µM | > 50 µM | 6 ×10⁻⁶ cm/s |  | 0.08 µM |  |  |  |  | 97% | 0.094 µM | 100% | > 40 µM | 32 µM | > 40 µM | > 40 µM | > 40 µM | > 40 µM | > 50 µM | > 10 µM | 
